Values after ≈ are worked out from the molar mass of the structure shown.
What was measured:
[1] = system: Cryptococcus neoformans ATCC 90112; test: In vitro antifungal activity, yeasts, NCCLS M27-A; format: cell-based; conditions: Table 9
Text: (§1) The assay used for yeasts (Candida; Cryptococcus) is that of the National Committee for Clinical Laboratory Standards. 1997. Reference Method for Broth Dilution Antifungal Susceptibility Testing of Yeasts: Approved Standard. NCCLS document M27-A.Villanova, Pa., USA as published in Ghannoum, M. A., A. S. Ibrahim, Y. Fu, M. C. Shafiq, J. E Edwards, Jr. and R. S. Criddle. 1992. Susceptibility testing of Cryptococcus neoformans: A microdilution technique. J. Clin. Microbiol. 30:2881-2886.

[2] = system: Candida albicans ATCC 10231; test: In vitro antifungal activity, yeasts, NCCLS M27-A; format: cell-based; conditions: Table 9
Text: as §1

[3] = system: Cryptococcus neoformans ATCC 90112; test: Antifungal susceptibility testing, microdilution MIC; format: cell-based
In short: (§2)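 Standard microdilution method, run in duplicate, using serial dilutions of cationic compounds.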

[4] = system: Candida albicans ATCC 10231; test: as above; format: cell-based
In short: as §2

[5] = system: Scedosporium prolificans 1-003-040; test: In vitro antifungal activity, filamentous fungi, NCCLS M38-A; format: cell-based
Text: (§3) The assay used for filamentous fungi (Aspergillus; Scedosporium; Fusarium) was that published by the National Committee for Clinical Laboratory Standards. 2002. Reference Method for Broth Dilution Antifungal Susceptibility Testing of Filamentous Fungi: Approved Standard. NCCLS document M38-A.Villanova, Pa., USA.

[6] = system: Aspergillus terreus ATCC 03-232-378; test: as above; format: cell-based
Text: as §3

[7] = system: Aspergillus flavus ATCC 204 304; test: as above; format: cell-based
Text: as §3

[8] = system: Scedosporium apiospermum 1-003-056; test: as above; format: cell-based
Text: as §3

[9] = system: Aspergillus fumigatus ATCC 204 305; test: as above; format: cell-based
Text: as §3

[10] = system: Fusarium solani 04-132-4207; test: as above; format: cell-based
Text: as §3

[11] = system: secreted phospholipase B (LPL/LPTA activities); test: Radiometric assay, secreted LPL and LPTA activities (Lyso assay); format: biochemical, Cryptococcus neoformans H99
Method: Fungal isolates and media. […] Isolate H99 was kindly supplied by Dr. Gary Cox (Duke University Medical Center, Durham, N.C., USA), and subcultured onto Sabouraud dextrose agar (SDA) at 30° C.
Preparation of supernatants containing secreted phospholipase activities. Isolate H99 was grown to confluence on SDA in 16 cm diameter Petri dishes for 72 h at 30° C. in air. Cells scraped from 10-20 dishes were washed sequentially with isotonic saline and imidazole buffer (10 mM imidazole, 2 mM CaCl2, 2 mM Mg Cl2, 56 mM D-Glucose, made up in isotonic saline, pH 5.5), resuspended in a volume of this buffer of about 10% of the cell volume, and incubated for 24 h at 37° C. The cell-free supernatant was separated by centrifugation as previously described and stored at −70° C.
Secreted LPL and LPTA activities were measured simultaneously in a reaction mixture containing 1-[^14C]palmitoyl lyso-PC (25,000 dpm) and carrier lyso-PC (final concentration 200 μM) in assay buffer. The reaction time was […] with 1 μg of total protein and LPL activity was measured by the rate of loss of 1-[^14C]palmitoyl lyso-PC with release of radiolabelled fatty acids. LPTA activity was estimated from the rate of formation of radiolabelled PC.
All reactions were terminated by adding 0.5 mL of chloroform:methanol (2:1 v/v). The reaction products were extracted by the method as disclosed in Bligh, E. C. and W. J. Dyer. 1959 ‘A rapid method of total lipid extraction and purification.’ Can. J. Biochem. Physiol. 37:911-917, separated by TLC and quantified as previously described. In the case of PLC activity, the TLC plates were developed in petroleum ether (BP 60-80° C.): diethyl ether: acetic acid (90:15:1, v/v/v) instead of chloroform:methanol:water (65:25:4, v/v/v).
Preparation of inhibitors and use in assays. The following compounds were tested (for structures, see FIG. 2): compound 1, 1,12-bis(tributylphosphonium)dodecane dibromide (Fluka AG, Buchs, Switzerland); compound 2, 1,10-bis(tributylammonium)-decane dibromide; compound 3, 1,12-bis(tributylammonium)do-decane dibromide (both synthesised in-house); compound 4, 1,10-bis(trimethylammonium)decane dibromide [“decamethonium”] (Sigma, St. Louis Mo., USA). All compounds were prepared as stock solutions of 700 μM in assay buffer containing 5 mM EDTA, which was then diluted serially with buffer to obtain solutions of 70, 7, 0.7 and 0.07 μM. In each assay, 45 μL of these solutions was used, and the final volume of 125 μL was made up of substrate, enzyme and buffer. The radiometric assay was carried out as above. Inhibition was calculated as the percent of substrates (DPPC or Lyso-PC) remaining in the case of PLB and LPL activities, or of DPPC produced, in the case of the LPTA activity. The amounts converted, or produced, in the inhibitor-free control were normalised to 100%, and the inhibition calculated against it. All assays were done in triplicate.
Under these conditions only PLB, LPL and LPTA activities (both secreted and cell-associated) were measured. Initially, compounds deemed to be potential inhibitors were assayed at 25 and 250 μM. Those showing some inhibition were then also assayed at 2.5 and 0.25 μM.

[12] = system: secreted phospholipase B (PLB activity); test: Radiometric assay, secreted PLB activity; format: biochemical, Cryptococcus neoformans H99; conditions: for PLB, percentage inhibition of activity: Secretory Cryptococcal H99 Phospholipase
In short: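 Secreted enzyme was taken from cell-free supernatant of Cryptococcus isolate H99 cells incubated 24 h at 37° C. Reactions at 37° C, pH 4.0 imidazole acetate, used 800 μM DPPC with [14C]-dipalmitoyl PC and 1 μg protein for 22 min. PLB was measured as radiolabelled PC loss by TLC, with inhibition expressed versus inhibitor-free control; compounds were tested at 25 and 250 μM, then 2.5 and 0.25 μM.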

[13] = target: T1, Porcine pancreatic phospholipase A2 (Sus scrofa, UniProt P00592); test: Pancreatic phospholipase assay; format: biochemical; conditions: read-out: ppPLA2, percentage inhibition of activity
T1 construct: purchased Sigma, St. Louis MO, USA
Method: Pancreatic phospholipase assay. Porcine pancreatic phospholipase A2 suspension in 3.2M ammonium sulfate (2.9 mg protein/mL, Sigma St.Louis Mo., USA) was used. One part of well mixed enzyme suspension was added to 4 parts of buffer (10 mM Tris/HCl, pH 8.2; 10 mM CaCl2. Activity and inhibition by test compounds was then measured by the radiometric method described in Example 2 for fungal PLB activity. However, 25 μL enzyme solution was used, and the reaction time was 1 hour. These conditions result in ˜60% substrate conversion in the inhibitor-free control.

[14] = system: C. neoformans strain H99 phospholipases; test: Inhibition of C. neoformans strain H99 phospholipases (all enzymes and activities); format: biochemical, Cryptococcus neoformans H99
Method: Radiometric assay method for phospholipases. Enzyme activities were measured as described previously in a final volume of 125 μL at 37° C. For the determination of secreted PLB activity, carrier dipalmitoyl phosphatidylcholine (DPPC, final concentration 800 μM) and 1,2-di[1-^14C] palmitoyl phosphatidylcholine (20,000 dpm) were dried under nitrogen and suspended in 125 mM imidazole acetate buffer (assay buffer, pH 4.0) by sonication using a Branson 450 sonifier. The reaction time was 22 min, using 1 μg total protein and PLB activity was determined by the rate of decrease of the radiolabelled PC substrate, with appearance of the label in free fatty acid. […] These activities were measured by the appearance of radiolabel from PC in Lyso PC, diacylglycerol and phosphatidic acid, respectively.
Secreted LPL and LPTA activities were measured simultaneously in a reaction mixture containing 1-[^14C]palmitoyl lyso-PC (25,000 dpm) and carrier lyso-PC (final concentration 200 μM) in assay buffer. The reaction time was […] with 1 μg of total protein and LPL activity was measured by the rate of loss of 1-[^14C]palmitoyl lyso-PC with release of radiolabelled fatty acids. […]
All reactions were terminated by adding 0.5 mL of chloroform:methanol (2:1 v/v). […] 37:911-917, separated by TLC and quantified as previously described. […]

T1 sequence (P00592 23-146): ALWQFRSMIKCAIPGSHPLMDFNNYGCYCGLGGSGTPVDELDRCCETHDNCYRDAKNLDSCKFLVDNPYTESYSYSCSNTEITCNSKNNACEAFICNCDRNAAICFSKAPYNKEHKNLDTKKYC

Q: Which results are given for C[C@@H]1[C@H](O)[C@@H](C)/C=C/C=C/C=C/C=C/C=C/C=C/C=C/[C@H](O[C@@H]2O[C@H](C)[C@@H](O)[C@H](N)[C@@H]2O)C[C@@H]2O[C@](O)(C[C@@H](O)C[C@@H](O)[C@H](O)CC[C@@H](O)C[C@@H](O)CC(=O)O[C@H]1C)C[C@H](O)[C@H]2C(=O)O [Amphotericin B, reference compound]?
A: MIC [1]: 0.54 µM (≈ 0.499 µg/mL); MIC Cryptococcus neoformans ATCC 90112 [1]: 0.50 µg/mL (≈ 0.541 µM); MIC [2]: 0.54 µM (≈ 0.499 µg/mL); MIC Candida albicans ATCC 10231 [2]: 0.50 µg/mL (≈ 0.541 µM); MIC ([3]; Table 6, no visible growth after 72 h at 35° C., read-out: MIC C. neof. ATCC 90112): 0.55 µM (≈ 0.508 µg/mL); MIC ([4]; Table 6, no visible growth after 48 h at 35° C., read-out: MIC C. albicans ATCC 10231): 1.1 µM (≈ 1.02 µg/mL); MIC [5]: 4.3 µM (≈ 3.97 µg/mL); MIC Scedosporium prolificans 1-003-040 [5]: 4.0 µg/mL (≈ 4.33 µM); MIC [6]: 1.1 µM (≈ 1.02 µg/mL); MIC Aspergillus terreus ATCC 03-232-378 [6]: 1.0 µg/mL (≈ 1.08 µM); MIC [7]: 0.54 µM (≈ 0.499 µg/mL); MIC Aspergillus flavus ATCC 204 304 [7]: 0.50 µg/mL (≈ 0.541 µM); MIC [8]: 0.54 µM (≈ 0.499 µg/mL); MIC Scedosporium apiospermum 1-003-056 [8]: 0.50 µg/mL (≈ 0.541 µM); MIC [9]: 0.54 µM (≈ 0.499 µg/mL); MIC Aspergillus fumigatus ATCC 204 305 [9]: 0.50 µg/mL (≈ 0.541 µM); MIC [10]: 0.27 µM (≈ 0.25 µg/mL); MIC Fusarium solani 04-132-4207 [10]: 0.25 µg/mL (≈ 0.271 µM)

Q: Which results are given for C[N+](C)(C)CCCCCCCCCC[N+](C)(C)C [Compound 4, 1,10-bis(trimethylammonium)decane dibromide, reference compound]?
A: Lyso assay (% inhibition) LPL ([11]; 0.25 μM): 250 μM = 0% 25 μM = 0% 2.5 μM = 0% 0.25 μM = 0%; Lyso assay (% inhibition) LPTA ([11]; 0.25 μM): 250 μM = 0% 25 μM = 0% 2.5 μM = 0% 0.25 μM = 0%; Lyso assay (% inhibition) LPL ([11]; 2.5 μM): 250 μM = 0% 25 μM = 0% 2.5 μM = 0% 0.25 μM = 0%; Lyso assay (% inhibition) LPTA ([11]; 2.5 μM): 250 μM = 0% 25 μM = 0% 2.5 μM = 0% 0.25 μM = 0%; Lyso assay (% inhibition) LPL ([11]; 25 μM): 250 μM = 0% 25 μM = 0% 2.5 μM = 0% 0.25 μM = 0%; Lyso assay (% inhibition) LPTA ([11]; 25 μM): 250 μM = 0% 25 μM = 0% 2.5 μM = 0% 0.25 μM = 0%; Lyso assay (% inhibition) LPL ([11]; 250 μM): 250 μM = 0% 25 μM = 0% 2.5 μM = 0% 0.25 μM = 0%; Lyso assay (% inhibition) LPTA ([11]; 250 μM): 250 μM = 0% 25 μM = 0% 2.5 μM = 0% 0.25 μM = 0%; PLB assay (% inhibition) ([12]; 0.25 μM): 250 μM = 0% 25 μM = 0% 2.5 μM = 0% 0.25 μM = 0%; PLB assay (% inhibition) ([12]; 2.5 μM): 250 μM = 0% 25 μM = 0% 2.5 μM = 0% 0.25 μM = 0%; PLB, percentage inhibition of activity ([12]; 2.5 μM): 0%; PLB assay (% inhibition) ([12]; 25 μM): 250 μM = 0% 25 μM = 0% 2.5 μM = 0% 0.25 μM = 0%; PLB, percentage inhibition of activity ([12]; 25 μM): 0%; PLB assay (% inhibition) ([12]; 250 μM): 250 μM = 0% 25 μM = 0% 2.5 μM = 0% 0.25 μM = 0%; PLB, percentage inhibition of activity ([12]; 250 μM): 0%; inhibition at 2.5 µM [13]: 0%; inhibition at 25 µM [13]: 0%; inhibition at 250 µM [13]: 0%; enzyme (phospholipase) inhibition, in words [14]: neither enzyme inhibition; MIC ([3]; Cryptococcus neoformans, ATCC90112, Table 6, no visible growth after 72 h at 35° C., read-out: MIC C. neof. ATCC 90112): 88 µM; MIC ([3]; Cryptococcus neoformans, ATCC90112, Table 7, read-out: MIC (μM) Crypto. (ATCC 90112)): ≥ 350 µM; MIC ([4]; Candida albicans, ATCC10231, Table 6, no visible growth after 48 h at 35° C., read-out: MIC C. albicans ATCC 10231): > 350 µM; MIC ([4]; Candida albicans, ATCC10231, Table 7, read-out: MIC (μM) C. alb. (10231)): ≥ 350 µM

Source: patent US7947854B2, “Bis-cationic compounds and use thereof” (The University of Sydney, priority 2003, dated 2011)
